ChEMBL document CHEMBL1201862, “PubChem BioAssay data set” (2004)
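How tested: cells in 96-well plates exposed to compound for 48 hours at five concentrations. GI50 marks 50% less growth.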 Calls of active or inactive are those of the source. No stated cut-off is given here; in the data, active = GI50 up to about 1.1 µM and inactive = higher.

How the values were obtained:
Assay in all cases: inhibition of tumour cell growth, NCI panel, 48 h
MDA-N = test system: MDA-N
DU-145 = test system: DU-145
SK-MEL-2 = test system: SK-MEL-2
IGROV-1 = test system: IGROV-1
HCT-15 = test system: HCT-15
UACC-62 = test system: UACC-62
SF-539 = test system: SF-539
SK-MEL-5 = test system: SK-MEL-5
A549 = test system: A549
SF-295 = test system: SF-295
MOLT-4 = test system: MOLT-4
HOP-62 = test system: HOP-62
K562 = test system: K562
COLO 205 = test system: COLO 205
CCRF-CEM = test system: CCRF-CEM
OVCAR-5 = test system: OVCAR-5
SNB-19 = test system: SNB-19
OVCAR-8 = test system: OVCAR-8
CAKI-1 = test system: CAKI-1
BT-549 = test system: BT-549
PC-3 = test system: PC-3
HT-29 = test system: HT-29
MDA-MB-231 = test system: MDA-MB-231
ACHN = test system: ACHN
RPMI-8226 = test system: RPMI-8226
MCF7 = test system: MCF7
UO-31 = test system: UO-31
KM12 = test system: KM12
A498 = test system: A498
SF-268 = test system: SF-268
NCI/ADR-RES = test system: NCI/ADR-RES
T47D = test system: T47D
M14 = test system: M14
HCT-116 = test system: HCT-116
SN12C = test system: SN12C
EKVX = test system: EKVX
HL-60 = test system: HL-60
Hs-578T = test system: Hs-578T
OVCAR-3 = test system: OVCAR-3
NCI-H226 = test system: NCI-H226
TK-10 = test system: TK-10
UACC-257 = test system: UACC-257
NCI-H460 = test system: NCI-H460
NCI-H23 = test system: NCI-H23
HCC 2998 = test system: HCC 2998
HOP-92 = test system: HOP-92
MDA-MB-435 = test system: MDA-MB-435
SK-OV-3 = test system: SK-OV-3
SW-620 = test system: SW-620
Malme-3M = test system: Malme-3M
786-0 = test system: 786-0
LOX IMVI = test system: LOX IMVI
SK-MEL-28 = test system: SK-MEL-28
OVCAR-4 = test system: OVCAR-4
SNB-75 = test system: SNB-75
U-251 = test system: U-251
NCI-H522 = test system: NCI-H522
RXF 393 = test system: RXF 393
SR = test system: SR

CCOC(=O)c1c(NC(=S)NCc2ccccc2)sc2c1CCN(C)C2
GI50 (MDA-N): > 100 µM (inactive) | GI50 (DU-145): 64.1 µM (inactive) | GI50 (SK-MEL-2): 39.5 µM (inactive) | GI50 (IGROV-1): 33 µM (inactive) | GI50 (HCT-15): 68.1 µM | GI50 (UACC-62): > 100 µM (inactive) | GI50 (SF-539): 69.2 µM (inactive) | GI50 (SK-MEL-5): 45.1 µM (inactive) | GI50 (A549): 53.6 µM (inactive) | GI50 (SF-295): 57.3 µM (inactive) | GI50 (MOLT-4): 20.4 µM (inactive) | GI50 (HOP-62): > 100 µM (inactive) | GI50 (K562): 21.7 µM (inactive) | GI50 (COLO 205): 46.1 µM (inactive) | GI50 (CCRF-CEM): 17.6 µM (inactive) | GI50 (OVCAR-5): > 100 µM (inactive) | GI50 (SNB-19): > 100 µM (inactive) | GI50 (OVCAR-8): 82.2 µM (inactive) | GI50 (CAKI-1): > 100 µM (inactive) | GI50 (BT-549): 59 µM (inactive) | GI50 (PC-3): 35.4 µM (inactive) | GI50 (HT-29): 45.5 µM (inactive) | GI50 (MDA-MB-231): 47.8 µM (inactive) | GI50 (ACHN): 89.5 µM (inactive) | GI50 (RPMI-8226): 28.5 µM (inactive) | GI50 (MCF7): 52.6 µM (inactive) | GI50 (UO-31): 64.4 µM (inactive) | GI50 (KM12): 24.4 µM (inactive) | GI50 (A498): 59.6 µM (inactive) | GI50 (SF-268): 64 µM (inactive) | GI50 (NCI/ADR-RES): > 100 µM (inactive) | GI50 (T47D): 41.5 µM (inactive) | GI50 (M14): > 100 µM (inactive) | GI50 (HCT-116): 67.3 µM (inactive) | GI50 (SN12C): 42.7 µM (inactive) | GI50 (EKVX): 78 µM (inactive) | GI50 (HL-60): 17.4 µM (inactive) | GI50 (Hs-578T): 64.4 µM (inactive) | GI50 (OVCAR-3): 36.5 µM (inactive) | GI50 (NCI-H226): > 100 µM (inactive) | GI50 (TK-10): 64.9 µM (inactive) | GI50 (UACC-257): > 100 µM (inactive) | GI50 (NCI-H460): 40.8 µM (inactive) | GI50 (NCI-H23): 65.5 µM (inactive)

CC(C)=CCC[C@@H](C)C1=C(O)C(=O)C(C)=C(c2c(I)c(=O)n(C)c(=O)n2C)C1=O
GI50 (MDA-N): > 100 µM (inactive) | GI50 (DU-145): > 100 µM (inactive) | GI50 (SK-MEL-2): > 100 µM (inactive) | GI50 (IGROV-1): 60.3 µM (inactive) | GI50 (HCC 2998): > 100 µM (inactive) | GI50 (HCT-15): > 100 µM | GI50 (SF-539): > 100 µM (inactive) | GI50 (A549): 61 µM (inactive) | GI50 (SF-295): > 100 µM (inactive) | GI50 (MOLT-4): 36.8 µM (inactive) | GI50 (HOP-92): > 100 µM (inactive) | GI50 (HOP-62): > 100 µM (inactive) | GI50 (K562): 61.9 µM (inactive) | GI50 (COLO 205): > 100 µM (inactive) | GI50 (CCRF-CEM): > 100 µM (inactive) | GI50 (MDA-MB-435): > 100 µM (inactive) | GI50 (OVCAR-5): > 100 µM (inactive) | GI50 (SNB-19): > 100 µM (inactive) | GI50 (OVCAR-8): > 100 µM (inactive) | GI50 (CAKI-1): > 100 µM (inactive) | GI50 (BT-549): > 100 µM (inactive) | GI50 (SK-OV-3): > 100 µM (inactive) | GI50 (PC-3): 49.7 µM (inactive) | GI50 (HT-29): > 100 µM (inactive) | GI50 (SW-620): > 100 µM (inactive) | GI50 (Malme-3M): > 100 µM (inactive) | GI50 (ACHN): > 100 µM (inactive) | GI50 (RPMI-8226): 61 µM (inactive) | GI50 (MCF7): > 100 µM (inactive) | GI50 (UO-31): > 100 µM (inactive) | GI50 (KM12): > 100 µM (inactive) | GI50 (A498): > 100 µM (inactive) | GI50 (SF-268): > 100 µM (inactive) | GI50 (786-0): > 100 µM (inactive) | GI50 (NCI/ADR-RES): > 100 µM (inactive) | GI50 (T47D): > 100 µM (inactive) | GI50 (M14): > 100 µM (inactive) | GI50 (HCT-116): > 100 µM (inactive) | GI50 (SN12C): > 100 µM (inactive) | GI50 (EKVX): > 100 µM (inactive) | GI50 (LOX IMVI): > 100 µM (inactive) | GI50 (HL-60): 74.6 µM (inactive) | GI50 (SK-MEL-28): > 100 µM (inactive) | GI50 (Hs-578T): 76.6 µM (inactive) | GI50 (OVCAR-3): > 100 µM (inactive) | GI50 (NCI-H226): > 100 µM (inactive) | GI50 (TK-10): > 100 µM (inactive) | GI50 (OVCAR-4): > 100 µM (inactive) | GI50 (UACC-257): > 100 µM (inactive) | GI50 (NCI-H460): > 100 µM (inactive) | GI50 (SNB-75): > 100 µM (inactive) | GI50 (NCI-H23): > 100 µM (inactive)

COc1ccc(O)c(/C(C)=N/NC(=S)N(C)C)c1
GI50 (MDA-N): > 73.3 µM (inactive) | GI50 (DU-145): 44 µM (inactive) | GI50 (SK-MEL-2): > 43.2 µM (inactive) | GI50 (IGROV-1): 14.3 µM (inactive) | GI50 (HCC 2998): > 61.9 µM (inactive) | GI50 (HCT-15): 5.12 µM | GI50 (UACC-62): 26.1 µM (inactive) | GI50 (SF-539): 64 µM (inactive) | GI50 (SK-MEL-5): 9.18 µM (inactive) | GI50 (A549): 23.4 µM (inactive) | GI50 (SF-295): 31.3 µM (inactive) | GI50 (MOLT-4): 36.5 µM (inactive) | GI50 (HOP-92): > 100 µM (inactive) | GI50 (U-251): > 36.6 µM (inactive) | GI50 (HOP-62): 21.9 µM (inactive) | GI50 (K562): 60.1 µM (inactive) | GI50 (COLO 205): 21.3 µM (inactive) | GI50 (CCRF-CEM): 8.93 µM (inactive) | GI50 (MDA-MB-435): 57.7 µM (inactive) | GI50 (NCI-H522): 1.33 µM (inactive) | GI50 (OVCAR-5): > 61.9 µM (inactive) | GI50 (SNB-19): 40.5 µM (inactive) | GI50 (OVCAR-8): 33.4 µM (inactive) | GI50 (CAKI-1): 16.7 µM (inactive) | GI50 (BT-549): 36 µM (inactive) | GI50 (SK-OV-3): 42.3 µM (inactive) | GI50 (PC-3): > 36.4 µM (inactive) | GI50 (HT-29): 0.0306 µM (active) | GI50 (SW-620): 28.6 µM (inactive) | GI50 (MDA-MB-231): > 20.6 µM (inactive) | GI50 (Malme-3M): 71 µM (inactive) | GI50 (ACHN): 13.5 µM (inactive) | GI50 (RXF 393): > 100 µM (inactive) | GI50 (RPMI-8226): 47.4 µM (inactive) | GI50 (UO-31): 17.7 µM (inactive) | GI50 (KM12): 42 µM (inactive) | GI50 (A498): > 100 µM (inactive) | GI50 (SF-268): 20.9 µM (inactive) | GI50 (786-0): > 40.7 µM (inactive) | GI50 (SR): 25.8 µM (inactive) | GI50 (NCI/ADR-RES): 18 µM (inactive) | GI50 (T47D): 40.9 µM (inactive) | GI50 (M14): 11.8 µM (inactive) | GI50 (HCT-116): 19.6 µM (inactive) | GI50 (SN12C): > 44.2 µM (inactive) | GI50 (EKVX): 31.9 µM (inactive) | GI50 (LOX IMVI): 4.48 µM (inactive) | GI50 (HL-60): 56 µM (inactive) | GI50 (SK-MEL-28): 35.7 µM (inactive) | GI50 (Hs-578T): > 100 µM (inactive) | GI50 (OVCAR-3): 37.3 µM (inactive) | GI50 (NCI-H226): 16.1 µM (inactive) | GI50 (OVCAR-4): 2.63 µM (inactive) | GI50 (UACC-257): 63.4 µM (inactive) | GI50 (NCI-H460): 15.6 µM (inactive) | GI50 (SNB-75): 75.5 µM (inactive) | GI50 (NCI-H23): 24.7 µM (inactive)
